molecular target: T1, h5-HT5A receptor (Homo sapiens, UniProt P47898); test: h5-HT5A [3H]5-CT binding assay; conditions: affinity for 5-HT5A; membranes of HEK293 cells expressing the h5-HT5A receptor gene, 2.5 nM [3H]5-CT
T1 construct: expressed in transfected cells; membranes used
Experimental: h5-HT5A [^3H]5-CT Binding Assay
Membranes of HEK293 cells which permanently express the h5-HT5A receptor gene were incubated in 100 mM tris-HCl buffer (pH 7.7) containing 1 mM EDTA, in the presence of 2.5 nM [^3H]5-CT (total volume 600 μL). The total binding is defined as the binding that is observed when the membranes are incubated in the presence of only the radioligand. The inhibition induced by the compound is determined by incubation of cell membranes in the presence of the radioligand and various concentrations of the compound of interest. Nonspecific binding is defined as the [^3H]5-CT binding obtained by incubation of the membranes, the same as for the total binding, but in the presence of 10 μM methiothepine. Following incubation for 75 min at 30° C., the membrane suspension was filtered through a GF/B-Filter coated with 0.03% PEI, using a Skatron® harvesting system. The residual radioactivity in the filter was quantified by liquid scintillation counting.
Various concentrations of the test substances were used in both assays, and the Ki or IC50 values were determined.

T1 sequence (P47898 whole entry): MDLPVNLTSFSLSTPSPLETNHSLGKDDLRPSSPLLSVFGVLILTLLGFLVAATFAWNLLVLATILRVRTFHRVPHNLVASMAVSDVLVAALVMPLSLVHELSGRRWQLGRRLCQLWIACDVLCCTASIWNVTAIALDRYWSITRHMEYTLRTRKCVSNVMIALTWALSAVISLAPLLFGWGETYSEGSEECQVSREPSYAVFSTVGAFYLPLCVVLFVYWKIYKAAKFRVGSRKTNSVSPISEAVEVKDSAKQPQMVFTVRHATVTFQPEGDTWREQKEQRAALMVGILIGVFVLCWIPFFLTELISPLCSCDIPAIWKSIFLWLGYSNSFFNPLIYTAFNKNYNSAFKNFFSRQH

| Structure (SMILES) | Ki |
| --- | --- |
| COc1cccc(C)c1CNC(=N)Nc1ccc(I)cn1 [Example 93, N-(5-Iodopyridin-2-yl)-N′-(2-methoxy-6-methylbenzyl)guanidine acetate] | < 100 nM |
| COc1cccc(Cl)c1CNC(=N)Nc1ccc(I)cn1 [Example 91, N-(2-Chloro-6-methoxybenzyl)-N′-(5-iodopyridin-2-yl)guanidine acetate] | < 100 nM |
| COc1cccc(C)c1CNC(=N)Nc1ccc(C#N)cn1 [Example 97, N-(5-Cyanopyridin-2-yl)-N′-(2-methoxy-6-methylbenzyl)guanidine acetate] | < 100 nM |
| COc1cccc(OC)c1CNC(=N)Nc1ncccc1Br [Example 46, N-(3-Bromopyridin-2-yl)-N′-(2,6-dimethoxybenzyl)guanidine acetate] | < 100 nM |
| CCc1ccccc1CNC(=N)Nc1ccc(C)cn1 [Example 25, N-(2-Ethylbenzyl)-N′-(5-methylpyridin-2-yl)guanidine] | < 300 nM |
| COc1cccc(OC)c1CNC(=N)Nc1ccc(C#N)cn1 [Example 85, N-(5-Cyanopyridin-2-yl)-N′-(2,6-dimethoxybenzyl)guanidine acetate] | < 100 nM |
| COc1ccccc1CNC(=N)Nc1ccc2ccccc2n1 [Example 40, N-(2-Methoxybenzyl)-N′-quinolin-2-yl-guanidine acetate] | < 100 nM |
| COc1ccccc1CNC(=N)Nc1cc(-c2ccccc2)ccn1 [Example 58, N-(2-Methoxybenzyl)-N′-(4-phenylpyridin-2-yl)guanidine acetate] | < 100 nM |
| COc1cccc(OC)c1CNC(=N)Nc1cc(C#N)ccn1 [Example 64, N-(4-Cyanopyridin-2-yl)-N′-(2,6-dimethoxybenzyl)guanidine acetate] | < 100 nM |
| COc1cccc(OC)c1CNC(=N)Nc1cc(C)ccn1 [Example 30, N-(2,6-Dimethoxybenzyl)-N′-(4-methylpyridin-2-yl)guanidine acetate] | < 100 nM |
| COc1ccccc1CNC(=N)Nc1cccc(Cc2ccccc2)n1 [Example 69, N-(6-Benzylpyridin-2-yl)-N′-(2-methoxybenzyl)guanidine acetate] | < 100 nM |
| COc1ccccc1CNC(=N)Nc1ccccn1 [Example 1, N-(2-methoxybenzyl)-N′-pyridin-2-yl-guanidine acetate] | < 100 nM |
| COc1ccccc1CNC(=N)Nc1cnc2ccccc2c1 [Example 16, N-(2-Methoxybenzyl)-N′-quinolin-3-yl-guanidine acetate] | < 10000 nM |
| COc1cccc(F)c1CNC(=N)Nc1cccc(C#N)n1 [Example 77, N-(6-Cyanopyridin-2-yl)-N′-(2-fluoro-6-methoxybenzyl)guanidine acetate] | < 100 nM |
| COc1ccccc1CNC(=N)Nc1cc2ccccc2cn1 [Example 38, N-Isoquinolin-3-yl-N′-(2-methoxybenzyl)guanidine] | < 100 nM |
| COc1cccc(OC)c1CNC(=N)Nc1cccc(C#N)n1 [Example 55, N-(6-Cyanopyridin-2-yl)-N′-(2,6-dimethoxybenzyl)guanidine acetate] | < 100 nM |
| COc1ccccc1CNC(=N)Nc1ncccc1Br [Example 47, N-(3-Bromopyridin-2-yl)-N′-(2-methoxybenzyl)guanidine acetate] | < 10000 nM |
| COc1ccccc1CNC(=N)Nc1cccc(-c2ccc(OC(F)(F)F)cc2)n1 [Example 48, N-(2-Methoxybenzyl)-N′-{6-[4-(trifluoromethoxy)phenyl]pyridin-2-yl}guanidine] | < 10000 nM |
| COc1cccc(Cl)c1CNC(=N)Nc1ccc(C#N)cn1 [Example 95, N-(2-Chloro-6-methoxybenzyl)-N′-(5-cyanopyridin-2-yl)guanidine acetate] | < 100 nM |
| COc1ccccc1CNC(=N)Nc1ccc(-c2ccccc2)cn1 [Example 86, N-(2-Methoxybenzyl)-N′-(5-phenylpyridin-2-yl)guanidine] | < 100 nM |
| COc1cccc(C)c1CNC(=N)Nc1cccc(C#N)n1 [Example 76, N-(2-Methoxy-6-methylbenzyl)-N′-(6-cyanopyridin-2-yl)guanidine acetate] | < 100 nM |
| COc1ccccc1CNC(=N)Nc1ccc(-c2cccs2)cn1 [Example 87, N-(2-Methoxybenzyl)-N′-[5-(2-thienyl)pyridin-2-yl]guanidine] | < 100 nM |
| COc1ccccc1CNC(=N)Nc1ccc(C)cn1 [Example 6, N-(2-methoxybenzyl)-N′-(5-methylpyridin-2-yl)guanidine acetate] | < 100 nM |
| Cc1ccc(NC(=N)NCc2ccccc2Cl)nc1 [Example 21, N-(2-Chlorobenzyl)-N′-(5-methylpyridin-2-yl)guanidine] | < 300 nM |
| N#Cc1ccc(NC(=N)NCc2ccccc2Cl)nc1 [Example 98, N-(2-Chlorobenzyl)-N′-(5-cyanopyridin-2-yl)guanidine acetate] | < 300 nM |
| COc1ccccc1CNC(=N)Nc1ccc[n+](C)c1 [Example 35, 3-({Imino[(2-methoxybenzyl)amino]methyl}amino)-1-methylpyridinium acetate] | < 10000 nM |
| COc1ccccc1CNC(=N)Nc1cccc(Br)n1 [Example 42, N-(6-Bromopyridin-2-yl)-N′-(2-methoxybenzyl)guanidine] | < 100 nM |

More lines, now with the values ahead:

| Ki | Structure (SMILES) |
| --- | --- |
| < 100 nM | COc1cccc(C)c1CNC(=N)Nc1cccc(Br)n1 [Example 71, N-(6-Bromopyridin-2-yl)-N′-(2-methoxy-6-methylbenzyl)guanidine] |
| < 100 nM | COc1cccc(OC)c1CNC(=N)Nc1cc2ccccc2cn1 [Example 39, N-(2,6-Dimethoxybenzyl)-N′-isoquinolin-3-ylguanidine] |
| < 100 nM | CC(C)Oc1ccccc1CNC(=N)Nc1cccc(C#N)n1 [Example 80, N-(6-Cyanopyridin-2-yl)-N′-(2-isopropoxybenzyl)guanidine acetate] |
| < 100 nM | COc1ccccc1CN=C(N)Nc1ccc(I)cn1 [Example 4, N-(5-Iodopyridin-2-yl)-N″-(2-methoxybenzyl)guanidine] |
| < 100 nM | CCOc1ccccc1CNC(=N)Nc1cccc(C#N)n1 [Example 81, N-(6-Cyanopyridin-2-yl)-N′-(2-ethoxybenzyl)guanidine acetate] |
| < 100 nM | COc1cccc(F)c1CNC(=N)Nc1cccc(Br)n1 [Example 72, N-(6-Bromopyridin-2-yl)-N′-(2-fluoro-6-methoxybenzyl)guanidine] |
| < 100 nM | CC(C)Oc1ccccc1CNC(=N)Nc1cccc(Br)n1 [Example 74, N-(6-Bromopyridin-2-yl)-N′-(2-isopropoxybenzyl)guanidine] |
| < 100 nM | COc1cccc(OC)c1CNC(=N)Nc1nccc(-c2cccs2)n1 [Example 15, N-(2,6-Dimethoxybenzyl)-N′-[4-(2-thienyl)pyrimidin-2-yl]guanidine acetate] |
| < 100 nM | N=C(NCc1ccccc1OC(F)(F)F)Nc1cccc(Br)n1 [Example 73, N-(6-Bromopyridin-2-yl)-N′-[2-(trifluoromethoxy)benzyl]guanidine] |
| < 100 nM | Cc1ccc(NC(=N)NCc2ccccc2OC(F)(F)F)nc1 [Example 24, N-(5-Methylpyridin-2-yl)-N′-[2-(trifluoromethoxy)benzyl]guanidine] |
| < 100 nM | COc1ccccc1CNC(=N)Nc1cc(Br)ccn1 [Example 45, N-(4-Bromopyridin-2-yl)-N′-(2-methoxybenzyl)guanidine] |
| < 100 nM | COc1cccc(OC)c1CNC(=N)Nc1cccc(-c2ccccc2)n1 [Example 53, N-(2,6-Dimethoxybenzyl)-N′-(6-phenylpyridin-2-yl)guanidine acetate] |
